Data published in BigSolDB 2.1.

## COC1=C(OC)C(=O)C(C/C=C(\C)CC/C=C(\C)CC/C=C(\C)CC/C=C(\C)CC/C=C(\C)CC/C=C(\C)CC/C=C(\C)CC/C=C(\C)CC/C=C(\C)CCC=C(C)C)=C(C)C1=O
In ethanol, 270.15 K
  solubility (mole fraction): 1e-05
In ethanol, 280.15 K
  solubility (mole fraction): 1.1e-05
In ethanol, 290.15 K
  solubility (mole fraction): 1.6e-05
In ethanol, 300.15 K
  solubility (mole fraction): 6.1e-05
In ethanol, 310.15 K
  solubility (mole fraction): 0.0002
In ethanol, 320.15 K
  solubility (mole fraction): 0.0014
In ethyl acetate, 270.15 K
  solubility (mole fraction): 0.0006
In ethyl acetate, 280.15 K
  solubility (mole fraction): 0.0033
In ethyl acetate, 290.15 K
  solubility (mole fraction): 0.0178
In ethyl acetate, 300.15 K
  solubility (mole fraction): 0.09
In ethyl acetate, 310.15 K
  solubility (mole fraction): 0.431
In ethyl acetate, 320.15 K
  solubility (mole fraction): 0.647
In isopropanol, 270.15 K
  solubility (mole fraction): 7e-06
In isopropanol, 280.15 K
  solubility (mole fraction): 8e-06
In isopropanol, 290.15 K
  solubility (mole fraction): 6.2e-05
In isopropanol, 300.15 K
  solubility (mole fraction): 0.0005
In isopropanol, 310.15 K
  solubility (mole fraction): 0.0029
In isopropanol, 320.15 K
  solubility (mole fraction): 0.0165
In n-butanol, 270.15 K
  solubility (mole fraction): 1e-05
In n-butanol, 280.15 K
  solubility (mole fraction): 1.7e-05
In n-butanol, 290.15 K
  solubility (mole fraction): 0.0001
In n-butanol, 300.15 K
  solubility (mole fraction): 0.0011
In n-butanol, 310.15 K
  solubility (mole fraction): 0.0107
In n-butanol, 320.15 K
  solubility (mole fraction): 0.0934
In n-hexane, 270.15 K
  solubility (mole fraction): 0.0009
In n-hexane, 280.15 K
  solubility (mole fraction): 0.0044
In n-hexane, 290.15 K
  solubility (mole fraction): 0.0207
In n-hexane, 300.15 K
  solubility (mole fraction): 0.0931
In n-hexane, 310.15 K
  solubility (mole fraction): 0.399
In n-hexane, 320.15 K
  solubility (mole fraction): 0.55
In n-propanol, 280.15 K
  solubility (mole fraction): 0.0002
In n-propanol, 290.15 K
  solubility (mole fraction): 0.0005
In n-propanol, 300.15 K
  solubility (mole fraction): 0.0014
In n-propanol, 310.15 K
  solubility (mole fraction): 0.0039
In n-propanol, 320.15 K
  solubility (mole fraction): 0.011
